Experiment [1] deals with T1, DNA repair protein RAD52 homolog (Homo sapiens, UniProt P43351).
T1 sequence (P43351 whole entry): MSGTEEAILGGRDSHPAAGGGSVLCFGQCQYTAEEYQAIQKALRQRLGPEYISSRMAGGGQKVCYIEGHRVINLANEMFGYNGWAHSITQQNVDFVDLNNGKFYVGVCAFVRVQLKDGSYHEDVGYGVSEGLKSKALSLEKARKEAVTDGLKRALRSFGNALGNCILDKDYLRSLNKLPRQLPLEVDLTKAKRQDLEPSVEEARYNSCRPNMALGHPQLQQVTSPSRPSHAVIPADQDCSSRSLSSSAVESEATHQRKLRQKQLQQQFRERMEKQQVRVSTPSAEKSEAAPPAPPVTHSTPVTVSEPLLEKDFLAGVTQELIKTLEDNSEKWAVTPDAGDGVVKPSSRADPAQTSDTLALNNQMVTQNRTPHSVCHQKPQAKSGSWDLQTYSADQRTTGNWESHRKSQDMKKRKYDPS
The experiment is classed as functional, biochemical.

Experiment [2] concerns the target T2, Endoribonuclease toxin MazF (Escherichia coli K-12, UniProt P0AE70).
T2 sequence (P0AE70 whole entry): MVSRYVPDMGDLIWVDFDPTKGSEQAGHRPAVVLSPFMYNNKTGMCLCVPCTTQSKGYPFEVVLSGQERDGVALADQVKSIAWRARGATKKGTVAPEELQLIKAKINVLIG
In words: activation of MazEF endoribonuclease cleavage – biochemical, fluorescence, single-stranded RNA substrate, uHTS hits, dose response (AID 588481). The class given is functional.

Experiment [3] addresses T3, Corticotropin-releasing factor receptor 2/Corticotropin-releasing factor-binding protein (Homo sapiens, UniProt P24387+Q13324).
T3 sequence (Q13324 whole entry): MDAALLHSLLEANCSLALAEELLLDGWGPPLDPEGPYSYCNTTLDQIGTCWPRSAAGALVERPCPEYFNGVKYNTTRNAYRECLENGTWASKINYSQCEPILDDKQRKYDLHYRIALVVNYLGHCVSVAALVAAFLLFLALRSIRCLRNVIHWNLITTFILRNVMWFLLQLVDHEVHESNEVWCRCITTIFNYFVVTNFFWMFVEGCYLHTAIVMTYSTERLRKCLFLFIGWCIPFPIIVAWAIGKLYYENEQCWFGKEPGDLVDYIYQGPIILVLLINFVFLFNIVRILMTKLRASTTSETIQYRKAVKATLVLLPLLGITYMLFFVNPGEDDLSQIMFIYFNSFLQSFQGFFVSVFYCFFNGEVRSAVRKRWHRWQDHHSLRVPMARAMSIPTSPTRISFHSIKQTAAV
T3 sequence (P24387 whole entry): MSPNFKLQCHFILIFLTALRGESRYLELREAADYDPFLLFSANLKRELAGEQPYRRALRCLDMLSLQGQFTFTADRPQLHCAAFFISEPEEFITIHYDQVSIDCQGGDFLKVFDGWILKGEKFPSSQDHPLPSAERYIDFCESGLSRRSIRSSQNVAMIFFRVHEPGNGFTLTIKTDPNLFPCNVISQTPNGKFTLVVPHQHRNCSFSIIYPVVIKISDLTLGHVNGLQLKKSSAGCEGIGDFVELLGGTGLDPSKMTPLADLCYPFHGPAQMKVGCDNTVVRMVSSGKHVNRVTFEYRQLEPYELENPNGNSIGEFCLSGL
In words: activators of CRF receptor 2 with binding protein – uHTS hits, confirmation (AID 602473). The class given is functional. The settings on record: read-out: EC50_Mean.

In experiment [4] the target is T2, Endoribonuclease toxin MazF. In words: substrate-only fluorescence increase artefacts – biochemical, single-stranded RNase substrate, counter-screen for MazEF activator project, dose response (AID 588502). The class given is functional. On the technique in general: Counterscreens check selectivity or assay interference.
For the next experiment, the target named is Paired box protein Pax-8 (Homo sapiens, UniProt Q06710). Description: PAX8 transcriptional activity inhibition in RMG-I – RMG-I cells, luciferase, cherry-pick, dose response (AID 687027).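 Note: luciferase reporter driven by Pax8 target thyroperoxidase promoter measured by SteadyGlo luminescence.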 The experiment is classed as functional, cell-based.
Chain of Paired box protein Pax-8 (Q06710 whole entry): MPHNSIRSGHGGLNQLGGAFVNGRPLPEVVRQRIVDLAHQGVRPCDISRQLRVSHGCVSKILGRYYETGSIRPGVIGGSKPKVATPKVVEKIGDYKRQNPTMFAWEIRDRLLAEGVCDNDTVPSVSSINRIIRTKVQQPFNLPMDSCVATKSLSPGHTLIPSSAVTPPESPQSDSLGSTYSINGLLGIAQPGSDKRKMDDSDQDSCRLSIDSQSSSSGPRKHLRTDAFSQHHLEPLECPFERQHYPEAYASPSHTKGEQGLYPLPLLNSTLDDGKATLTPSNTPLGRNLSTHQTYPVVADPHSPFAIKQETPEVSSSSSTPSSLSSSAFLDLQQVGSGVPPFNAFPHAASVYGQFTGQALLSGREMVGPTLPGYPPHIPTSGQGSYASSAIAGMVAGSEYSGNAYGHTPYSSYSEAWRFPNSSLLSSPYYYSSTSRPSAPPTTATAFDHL
A short description of experiment [5]: reduction of Shn3 3'UTR-driven luciferase in osteoblasts – cell-based, Clone20 osteoblasts, firefly luciferase, cherry-picked, dose response (AID 624132).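 Note: firefly luciferase luminescence from reporter carrying the Shn3 3'UTR in osteoblasts.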 The experiment is classed as functional.
The nature of experiment [6]: loss of viability in HepG2 cells – cell-based, CellTiter-Glo, cherry-picked, cytotoxicity control for Shn3 inhibitor project, dose response (AID 624134). The experiment is classed as functional.
A short description of experiment [7]: non-specific 3'UTR reporter inhibition in Clone20-Shn3RL – cell-based, Renilla luciferase, cherry-picked, counter-screen for Shn3 inhibitor project, dose response (AID 624133). The class given is functional.
Another experiment concerns the target T4, Streptokinase A (Streptococcus pyogenes serotype M1, UniProt P10520).
T4 sequence (P10520 whole entry): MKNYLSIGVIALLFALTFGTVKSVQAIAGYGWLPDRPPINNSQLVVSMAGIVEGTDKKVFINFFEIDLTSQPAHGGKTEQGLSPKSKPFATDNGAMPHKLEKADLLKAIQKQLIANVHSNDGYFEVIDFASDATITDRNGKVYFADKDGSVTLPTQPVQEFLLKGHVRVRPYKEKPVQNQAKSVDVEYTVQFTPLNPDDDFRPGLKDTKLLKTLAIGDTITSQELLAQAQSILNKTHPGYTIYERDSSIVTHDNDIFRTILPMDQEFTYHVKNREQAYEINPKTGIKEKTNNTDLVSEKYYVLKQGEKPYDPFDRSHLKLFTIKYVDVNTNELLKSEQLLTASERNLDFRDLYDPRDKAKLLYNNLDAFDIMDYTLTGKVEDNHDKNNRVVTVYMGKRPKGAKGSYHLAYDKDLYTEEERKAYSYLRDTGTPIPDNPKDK
In words: viability-normalized secreted streptokinase activity reduction – plasminogen activation absorbance, OD405, dose response (AID 1914).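 Note: secreted streptokinase activity via plasminogen activation per viability signal from cell pellet.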 The experiment is classed as functional, Streptococcus pyogenes M1 GAS.

The test system of a further experiment is Streptococcus. Description: GAS UMAA2166 growth inhibition – luminescence, BacTiterGlo, counter-screen for streptokinase expression inhibitor project, dose response (AID 1915).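 Note: potency for reduction of bacterial viability or growth.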 The experiment is classed as functional, organism-based.
Experiment [8] deals with Streptococcus sp. 'group A'. In words: Streptococcus pyogenes SK(-)GAS viability under kanamycin – luminescence, BacTiterGlo, confirmation, counter-screen for streptokinase expression inhibitor project, dose response (AID 1900). The experiment is classed as functional, organism-based.
Experiment [9] concerns the target T5, Microphthalmia-associated transcription factor (Homo sapiens, UniProt O75030).
T5 sequence (O75030 whole entry): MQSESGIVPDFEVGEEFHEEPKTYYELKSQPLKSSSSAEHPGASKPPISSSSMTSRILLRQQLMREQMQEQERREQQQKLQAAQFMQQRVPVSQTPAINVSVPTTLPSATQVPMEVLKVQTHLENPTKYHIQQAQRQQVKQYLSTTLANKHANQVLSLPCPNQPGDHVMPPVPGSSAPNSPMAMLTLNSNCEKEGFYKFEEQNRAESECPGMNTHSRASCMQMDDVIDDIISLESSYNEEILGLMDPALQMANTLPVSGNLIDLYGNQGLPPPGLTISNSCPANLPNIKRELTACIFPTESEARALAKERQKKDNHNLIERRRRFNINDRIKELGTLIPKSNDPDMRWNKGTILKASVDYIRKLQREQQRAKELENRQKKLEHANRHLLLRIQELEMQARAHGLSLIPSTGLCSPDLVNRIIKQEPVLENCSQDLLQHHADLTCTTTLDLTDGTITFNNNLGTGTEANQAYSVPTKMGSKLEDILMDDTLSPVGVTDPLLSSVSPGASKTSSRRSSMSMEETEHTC
In words: reducers of TRPM1 reporter luminescence, concentration series – cell-based, SK-MEL-5, cherry-picked, set 3, MITF inhibitor project, dose response (AID 493073).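 Note: SK-MEL-5 melanoma cells with luciferase driven by the MITF target TRPM1 promoter.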 The class given is functional.

Experiment [10] concerns the target T6, RNA-binding protein pos-1 (Caenorhabditis elegans, UniProt G5EF15).
T6 sequence (G5EF15 whole entry): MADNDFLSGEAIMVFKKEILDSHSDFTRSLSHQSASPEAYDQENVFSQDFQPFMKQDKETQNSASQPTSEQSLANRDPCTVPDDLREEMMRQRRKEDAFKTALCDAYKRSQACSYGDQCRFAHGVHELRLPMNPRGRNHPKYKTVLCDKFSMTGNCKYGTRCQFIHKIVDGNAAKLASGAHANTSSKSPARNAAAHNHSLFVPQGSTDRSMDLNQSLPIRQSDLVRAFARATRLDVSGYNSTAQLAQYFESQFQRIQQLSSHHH
In words: disruptors of C. elegans POS-1 RNA interaction – biochemical, fluorescence polarization, dose response (AID 1964).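 Note: purified POS-1 fused to maltose binding protein made in E. coli; potency of compounds blocking POS-1 binding to fluorescent RNA.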

Experiment [11] has as its target T7, Zinc finger protein mex-5 (Caenorhabditis elegans, UniProt Q9XUB2).
T7 sequence (Q9XUB2 whole entry): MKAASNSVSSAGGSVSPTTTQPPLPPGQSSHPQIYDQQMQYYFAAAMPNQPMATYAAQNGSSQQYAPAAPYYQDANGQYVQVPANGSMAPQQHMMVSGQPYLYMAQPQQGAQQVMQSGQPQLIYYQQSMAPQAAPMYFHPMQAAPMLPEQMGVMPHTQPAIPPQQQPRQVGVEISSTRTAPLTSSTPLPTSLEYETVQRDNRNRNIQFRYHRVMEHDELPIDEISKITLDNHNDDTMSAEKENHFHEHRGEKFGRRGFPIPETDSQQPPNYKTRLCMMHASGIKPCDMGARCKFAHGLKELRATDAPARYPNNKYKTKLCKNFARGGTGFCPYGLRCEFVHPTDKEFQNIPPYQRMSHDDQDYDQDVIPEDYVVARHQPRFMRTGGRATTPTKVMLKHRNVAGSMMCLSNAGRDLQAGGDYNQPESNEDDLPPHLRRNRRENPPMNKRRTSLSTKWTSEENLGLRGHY
In words: potency of MEX-5 RNA-binding blockers – biochemical, C. elegans, fluorescence polarization, dose response (AID 1960). Background: Polarisation of emitted light reports the rotation of a fluorescent probe.

The target of experiment [12] is T8, Carboxy-terminal domain RNA polymerase II polypeptide A small phosphatase 1 (Homo sapiens, UniProt Q9GZU7).
T8 sequence (Q9GZU7 whole entry): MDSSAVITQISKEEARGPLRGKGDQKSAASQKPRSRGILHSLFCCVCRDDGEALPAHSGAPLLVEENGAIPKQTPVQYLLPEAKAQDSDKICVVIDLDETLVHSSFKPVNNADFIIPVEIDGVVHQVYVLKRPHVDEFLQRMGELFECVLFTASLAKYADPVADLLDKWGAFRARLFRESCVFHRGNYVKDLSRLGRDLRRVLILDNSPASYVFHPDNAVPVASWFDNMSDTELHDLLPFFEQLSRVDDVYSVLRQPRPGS
In words: CTDSP1 inhibitors, concentration-response, biochemical, absorbance readout, ultra-high-throughput screen actives (AID 540297). The experiment is classed as functional.

In another experiment the target is T9, Cytochrome P450 1A2 (Homo sapiens, UniProt P05177).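 Note: PubChem cytochrome P450 panel assay, CYP1A2 panel member.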
T9 sequence (P05177 whole entry): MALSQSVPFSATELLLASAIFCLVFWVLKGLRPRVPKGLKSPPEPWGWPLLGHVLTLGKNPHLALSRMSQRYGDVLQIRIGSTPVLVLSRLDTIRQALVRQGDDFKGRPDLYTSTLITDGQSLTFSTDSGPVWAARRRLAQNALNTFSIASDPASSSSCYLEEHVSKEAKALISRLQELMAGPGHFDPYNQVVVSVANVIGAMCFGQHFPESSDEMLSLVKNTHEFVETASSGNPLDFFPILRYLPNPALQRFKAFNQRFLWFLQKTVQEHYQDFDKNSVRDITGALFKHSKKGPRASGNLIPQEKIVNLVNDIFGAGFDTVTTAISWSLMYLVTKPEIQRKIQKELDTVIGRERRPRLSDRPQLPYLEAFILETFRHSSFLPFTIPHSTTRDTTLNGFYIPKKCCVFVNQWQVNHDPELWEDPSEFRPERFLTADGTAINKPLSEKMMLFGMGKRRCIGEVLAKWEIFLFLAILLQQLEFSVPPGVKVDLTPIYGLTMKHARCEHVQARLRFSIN

SMILES strings stand for the structures. Active and inactive are the calls of the source. Bounds are passed on as bounds.

The term AC50 denotes the concentration at which the activity in the assay is half-maximal. In general, IC50 refers to the point on the concentration scale where inhibition reaches its midpoint.

Take `CN1CCN(CCCNc2nc3ccccc3c3nc(-c4ccccc4)nn23)CC1`: in experiment [1], the AC50 is 14.2 µM (active).

With `Cc1cc(/C=C2\C(=O)NC(=O)N(c3cccc(Br)c3)C2=O)c(C)n1C`, the EC50 in [2] was > 99 µM (inactive); in experiment [3], 26.2 µM (active); in experiment [4], > 99 µM (inactive).

For `CN(C)CC(C(=O)Cc1ccccc1)c1ccccc1` (stereo unspecified), the AC50 on Paired box protein Pax-8 was 1.71 µM (active); in experiment [5], 7.81 µM (active); in experiment [6], 14.5 µM (active); in experiment [7], 7.58 µM (active).

As to `O=[N+]([O-])c1ccc(/C=C/c2ccc3cccc(O)c3n2)cc1`, the EC50 in experiment [2] and in [4] was > 99 µM (inactive) each time.

For the compound `N#C/C(=C(/O)c1ccc([N+](=O)[O-])o1)c1nc2ccccc2[nH]1`, the EC50 at Streptokinase A is 27.6 µM (active); in [2], > 99 µM (inactive); with Streptococcus it was 66 µM (active); in [8], 3.57 µM (active); in [4] it was 5.53 µM (active). Also, in [9], the AC50 is 3.8 µM (active).

As to `Cc1ccc(-n2nnnc2SCc2nc3sc(C)c(C)c3c(=O)[nH]2)cc1`, the EC50 in experiment [2] and in experiment [4] was > 99 µM (inactive) in each case.

On to `CCN1CCN(Cc2c(C(=O)N/N=C(\C)c3ccc(Cl)cc3)nnn2-c2nonc2N)CC1`, for which the EC50 in experiment [10] and in experiment [11] was > 300 µM (not active) each time. In addition, the AC50 in experiment [1] is 8.73 µM (active).

Turning to `O=C(N/N=C/c1cccc(OC2CSC2)c1)c1ccccc1O`, the IC50 in experiment [12] was 6.78 µM (active). Also, the AC50 at Cytochrome P450 1A2 is 3.16 µM (inconclusive).

In the case of `CCn1c(/C=C/c2c(C)n(CC)c3ccccc23)nc2ccccc2c1=O`, the EC50 in [2] and in [4] was > 99 µM (inactive) throughout.

For the compound `CC(=O)Nc1nc(C)c(-c2csc(Nc3cccc(C(C)=O)c3)n2)s1`, the AC50 was 1.67 µM (active) in experiment [5], 21 µM (active) in [6], 8.38 µM (active) in [9] and < 0.5 µM (active) in experiment [7].

Take `Cc1cc(C)c(C#N)c(SCC(=O)c2cccs2)n1`: the EC50 in experiment [2] is 18 µM (active); in experiment [4] it was > 99 µM (inactive).

The record behind these values is ChEMBL document CHEMBL1201862, “PubChem BioAssay data set” (2004).
